In patent US20260317324A1, “BIFUNCTIONAL COMPOUNDS FOR DEGRADING BRAF VIA UBIQUITIN PROTEOSOME PATHWAY” (Nurix Therapeutics, Inc., priority 2023, published 2026):

Legend:
Type in all cases: cell-based
BRAF G469A = target: T1, BRAF G469A (Homo sapiens, UniProt P15056, G469A); assay: BRAF HiBiT degradation assay, C-terminal HiBiT-tagged BRAF G469A overexpressed in HCT-116 BRAF−/− cells (clone 34), Nano-Glo HiBiT Lytic assay
T1 construct: Horizon Discovery (HCT-116 BRAF−/− cells); host or cells: HCT-116 BRAF−/− cells, clone 34, lentiviral transduction
T1 sequence (P15056 whole entry G469A): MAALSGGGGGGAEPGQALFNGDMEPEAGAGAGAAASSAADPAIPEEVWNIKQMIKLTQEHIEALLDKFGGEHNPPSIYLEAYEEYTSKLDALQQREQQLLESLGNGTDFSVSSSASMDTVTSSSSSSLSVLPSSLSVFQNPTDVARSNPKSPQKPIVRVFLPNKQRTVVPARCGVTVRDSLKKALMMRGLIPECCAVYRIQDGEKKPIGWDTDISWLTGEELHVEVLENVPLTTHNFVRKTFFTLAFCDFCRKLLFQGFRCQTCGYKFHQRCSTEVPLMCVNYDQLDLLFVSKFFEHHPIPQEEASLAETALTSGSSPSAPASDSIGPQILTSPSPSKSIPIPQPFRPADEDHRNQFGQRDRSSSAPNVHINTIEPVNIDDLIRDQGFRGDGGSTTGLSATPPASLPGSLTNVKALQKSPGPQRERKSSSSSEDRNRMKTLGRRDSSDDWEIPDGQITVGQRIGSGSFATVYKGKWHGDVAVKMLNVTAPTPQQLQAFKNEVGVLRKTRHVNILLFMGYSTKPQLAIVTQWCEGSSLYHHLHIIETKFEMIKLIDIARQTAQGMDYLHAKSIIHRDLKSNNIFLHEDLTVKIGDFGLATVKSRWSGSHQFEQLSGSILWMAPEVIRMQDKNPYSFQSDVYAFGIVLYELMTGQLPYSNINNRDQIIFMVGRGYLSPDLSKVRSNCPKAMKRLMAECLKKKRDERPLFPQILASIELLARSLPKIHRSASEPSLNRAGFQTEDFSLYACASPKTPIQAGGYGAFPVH
Description: (§1) An A375 cell line expressing a homozygous V600E mutation was purchased from ATCC (Manassas, VA, USA). An A375 clone 1F10 cell line with an endogenous C-terminal HiBiT fusion tag on BRAF V600E allele was generated internally using CRISPR-Cas9 technology and cultured in DMEM, high glucose supplemented with 10% FBS and 1× GlutaMAX. A HCT-116 BRAF−/− cell line overexpressing the C-terminal HiBiT-tagged G466V, G469A, and D594G mutants were generated by lentiviral transduction, externally at Biosettia Inc (San Diego, CA, USA). The stably transfected cells were cultured in RPMI media supplemented with 10% FBS, 1× GlutaMAX, and 0.25 μg/ml puromycin. DMEM medium, RPMI 1640 medium, GlutaMAX, fetal bovine serum (FBS), and puromycin were purchased from Gibco (Grand Island, NY, USA). HCT-116 BRAF−/− cells were purchased from Horizon Discovery (Waterbeach, UK).
(§2) The C-terminal HiBiT tagged mutant BRAF G466V, G469A, and D594G overexpressed in HCT-116 BRAF−/− cells (monoclonal cell line, cell clones 8, 34, and 63, respectively) were seeded at the density of 3,000 cells/well in 30 μL media (RPMI supplemented with 10% FBS and 1× GlutaMAX) in white opaque 384-well plates (Corning #3570) from column 1 to column 23. Wildtype HCT-116 BRAF cells were seeded in column 24 at the same cell density in 30 μL media. Cells were incubated at 37° C. with 5% CO2 for 24 h.
(§3) Intermediate compound dilution series (5-point, ranging from 5 mM to 0.5 μM, 10-fold dilutions in DMSO) were prepared in a source plate (Beckman Coulter cat. no. 001-16128). Final compound dilution series (11-point, ranging from 1 μM to 0.01 nM, half-log dilutions in DMSO) were stamped into the assay plate (Corning #3570, column 1-11 and 12-22) using the Echo Acoustic Liquid Handler (Beckman Coulter). Each compound was plated in duplicate, and the total volume of compound DMSO solution was 60 nL/well (0.2% final DMSO concentration). DMSO was included in wells A23-L23 and A24-L24. The DMSO-treated HiBiT-tagged samples served as Negative Control (NC) and the DMSO-treated wildtype samples served as Background Control (BC) for the HiBiT assay.
(§4) HiBiT signal was measured by a Nano-Glo HiBiT Lytic assay (Promega cat. no. N3050). HiBiT lytic detection reagent (Nano-Glo HiBiT Lytic Buffer with 1:50 Nano-Glo HiBiT Lytic Substrate and 1:100 LgBiT Protein, 40 μL) was added using Bravo. The mixture was incubated at room temperature, in the dark, and with gentle shaking for 10 min. Luminesce units (LU) were read on an EnVision plate reader 2105 (Perkin Elmer).
(§5) Percent protein remaining and viability remaining per sample were calculated as follows: […]
(§6) % Protein remaining values were plotted as a function of compound concentration. XC50 (DC50) values were determined by fitting curves using the following equation:
(§7) For the HiBiT degradation assay, the key parameters reported include: • The dose of compound that produces 50% degradation (DC50 at 50%): • DC50 at 50%: the Fitted X value (Conc.) at Y=50 (response) • Observed Dmax (Obs. Dmax) is the percentage protein degraded at maximal compound effect relative to DMSO-treated control: […]

BRAF V600E = target: T2, BRAF V600E (Homo sapiens, UniProt P15056, V600E); assay: BRAF HiBiT degradation assay, C-terminal HiBiT-tagged BRAF V600E A375 cells (clone 1F10), Nano-Glo HiBiT Lytic assay; settings: for Dmax: A-375
T2 construct: endogenous C-terminal HiBiT fusion tag on BRAF V600E allele; endogenous in cells; host or cells: A375 clone 1F10 (CRISPR-Cas9 knock-in of the HiBiT tag; parental A375 from ATCC)
T2 sequence (P15056 whole entry V600E, the tested form may be a part): as the sequence (P15056 whole entry G469A) above, with A469G, V600E counted along it
Summary of the method: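 Luminescence read-out: Nano-Glo HiBiT lytic reagent with LgBiT, 10 min at room temperature. Signal normalised to DMSO-treated tagged cells, with wildtype A375 as background. Cells are endogenously tagged BRAF V600E A375 clone 1F10. Compounds were tested from 1 μM to 0.01 nM; Dmax is observed % degraded at maximal effect.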

BRAF G466V = target: T3, BRAF G466V (Homo sapiens, UniProt P15056, G466V); assay: BRAF HiBiT degradation assay, C-terminal HiBiT-tagged BRAF G466V overexpressed in HCT-116 BRAF−/− cells (clone 8), Nano-Glo HiBiT Lytic assay
T3 construct: Horizon Discovery (HCT-116 BRAF−/− cells); host or cells: HCT-116 BRAF−/− cells, clone 8, lentiviral transduction
T3 sequence (P15056 whole entry G466V): as the sequence (P15056 whole entry G469A) above, with G466V, A469G counted along it
Description: as §1, §2, §3, §4, §5, §6, §7

BRAF D594G = target: T4, BRAF D594G (Homo sapiens, UniProt P15056, D594G); assay: BRAF HiBiT degradation assay, C-terminal HiBiT-tagged BRAF D594G overexpressed in HCT-116 BRAF−/− cells (clone 63), Nano-Glo HiBiT Lytic assay
T4 construct: Horizon Discovery (HCT-116 BRAF−/− cells); host or cells: HCT-116 BRAF−/− cells, clone 63, lentiviral transduction
T4 sequence (P15056 whole entry D594G): as the sequence (P15056 whole entry G469A) above, with A469G, D594G counted along it
Description: as §1, §2, §3, §4, §5, §6, §7

[1] = Class 2, BRAF G469A, DC50 at 50%: fitted conc. at Y=50
[2] = HCT-116, Class 2, BRAF G469A, percentage protein degraded at maximal compound effect relative to DMSO
[3] = A375 (BRAF V600E), DC50 at 50%: fitted conc. at Y=50
[4] = A375 (BRAF V600E), percentage protein degraded at maximal compound effect relative to DMSO
[5] = BRAF G466V, DC50 at 50%: fitted conc. at Y=50
[6] = HCT-116, BRAF G466V, percentage protein degraded at maximal compound effect relative to DMSO
[7] = BRAF D594G, DC50 at 50%: fitted conc. at Y=50
[8] = HCT-116, BRAF D594G, percentage protein degraded at maximal compound effect relative to DMSO
[9] = BRAF G469A (Class 2), HCT-116 BRAF−/− cells, DC50 at 50% degradation
[10] = BRAF G469A (Class 2), HCT-116 BRAF−/− cells, observed Dmax relative to DMSO control
[11] = A375 (BRAF V600E, Class 1), DC50 at 50% degradation
[12] = A375 (BRAF V600E, Class 1), observed Dmax, % protein degraded relative to DMSO control
[13] = BRAF G466V (Class 3), HCT-116 BRAF−/− cells, DC50 at 50% degradation
[14] = BRAF G466V (Class 3), HCT-116 BRAF−/− cells, observed Dmax relative to DMSO control
[15] = BRAF D594G (Class 3), HCT-116 BRAF−/− cells, DC50 at 50% degradation
[16] = BRAF D594G (Class 3), HCT-116 BRAF−/− cells, observed Dmax relative to DMSO control

Row | SMILES | DC50 (BRAF G469A; [1]) [nM] | Dmax (BRAF G469A; [2]) [%] | DC50 (BRAF V600E; [3]) [nM] | Dmax (BRAF V600E; [4]) [%] | DC50 (BRAF G466V; [5]) [nM] | Dmax (BRAF G466V; [6]) [%] | DC50 (BRAF D594G; [7]) [nM] | Dmax (BRAF D594G; [8]) [%] | DC50 (BRAF G469A; [9]) [nM] | Dmax (BRAF G469A; [10]) [%] | DC50 (BRAF V600E; [11]) [nM] | Dmax (BRAF V600E; [12]) [%] | DC50 (BRAF G466V; [13]) [nM] | Dmax (BRAF G466V; [14]) [%] | DC50 (BRAF D594G; [15]) [nM] | Dmax (BRAF D594G; [16]) [%]
1 | CCCS(=O)(=O)Nc1cccc(-c2nc(C(C)(C)C)sc2-c2ccnc(Nc3ccc(C4CCN(C(=O)C[C@H]5CCN(c6ccc(C7CCC(=O)NC7=O)cc6)C5)CC4)cc3)n2)c1F (mixture of isomers) [Compound 165, N-{3-[2-tert-butyl-5-(2-{[4-(1-{2-[(3R)-1-{4-[(3RS)-2,6-dioxopiperidin-3-yl]phenyl}pyrrolidin-3-yl]acetyl}piperidin-4-yl)phenyl]amino}pyrimidin-4-yl)-1,3-thiazol-4-yl]-2-fluorophenyl}propane-1-sulfonamide] | > 500 | < 30 | 10 to 50 | 30 to 70 | > 500 | < 30 | > 500 | < 30 | – | – | – | – | – | – | – | –
2 | CCCS(=O)(=O)Nc1cccc(-c2nc(C(C)(C)C)sc2-c2ccnc(Nc3ccc(C4CCN(CC[C@H]5CCN(c6ccc(C7CCC(=O)NC7=O)cn6)C5)CC4)cc3)n2)c1F (mixture of isomers) [Compound 173, N-{3-[2-tert-butyl-5-(2-{[4-(1-{2-[(3S)-1-{5-[(3RS)-2,6-dioxopiperidin-3-yl]pyridin-2-yl}pyrrolidin-3-yl]ethyl}piperidin-4-yl)phenyl]amino}pyrimidin-4-yl)-1,3-thiazol-4-yl]-2-fluorophenyl}propane-1-sulfonamide] | > 500 | < 30 | 10 to 50 | > 70 | > 500 | 30 to 70 | > 500 | 30 to 70 | – | – | – | – | – | – | – | –
3 | CCCS(=O)(=O)Nc1cccc(-c2nc(C3CCN(C(=O)C4CCN(C(=O)C5CCN(c6ccc(C7CCC(=O)NC7=O)cn6)CC5)CC4)CC3)sc2-c2ccnc(N[C@H](C)CO)n2)c1F (mixture of isomers) [Compound 180, N-[3-(2-{1-[1-(1-{5-[(3RS)-2,6-dioxopiperidin-3-yl]pyridin-2-yl}piperidine-4-carbonyl)piperidine-4-carbonyl]piperidin-4-yl}-5-(2-{[(2R)-1-hydroxypropan-2-yl]amino}pyrimidin-4-yl)-1,3-thiazol-4-yl)-2-fluorophenyl]propane-1-sulfonamide] | 10 to 50 | 30 to 70 | < 10 | > 70 | < 10 | 30 to 70 | < 10 | 30 to 70 | – | – | – | – | – | – | – | –
4 | CCCS(=O)(=O)Nc1cccc(-c2nc(C3CCC4(CC3)CCN(CC[C@H]3CCN(c5ccc(C6CCC(=O)NC6=O)cn5)C3)CC4)sc2-c2ccnc(N)n2)c1F (mixture of isomers) [Compound 259, N-{3-[5-(2-aminopyrimidin-4-yl)-2-(3-{2-[(3S)-1-{5-[(3RS)-2,6-dioxopiperidin-3-yl]pyridin-2-yl}pyrrolidin-3-yl]ethyl}-3-azaspiro[5.5]undecan-9-yl)-1,3-thiazol-4-yl]-2-fluorophenyl}propane-1-sulfonamide] | – | – | – | – | – | – | – | – | > 500 | < 30 | 10 to 50 | 30 to 70 | > 500 | < 30 | > 500 | < 30
5 | C[C@@H]1CN(c2ccc(-n3cc(-c4cc(Cl)cc(NS(=O)(=O)N5CCCC5)c4F)c(-c4ccncc4)n3)cc2)CCN1CC1CCN(c2ccc(C3CCC(=O)NC3=O)cn2)CC1 (mixture of isomers) [Compound 268, N-(5-chloro-3-(1-(4-((R)-4-((1-(5-((RS)-2,6-dioxopiperidin-3-yl)pyridin-2-yl)piperidin-4-yl)methyl)-3-methylpiperazin-1-yl)phenyl)-3-(pyridin-4-yl)-1H-pyrazol-4-yl)-2-fluorophenyl)pyrrolidine-1-sulfonamide] | – | – | – | – | – | – | – | – | < 10 | > 70 | < 10 | > 70 | < 10 | > 70 | < 10 | > 70
